The structures appear in SMILES notation. Like-named read-outs stand apart in the source and are kept apart here.

Data set [1] has as its system glioblastoma multiforme (GBM). Particulars: cited from earlier work; for median overall survival: GBM patients receiving TMZ.
In data set [2] the test system is HER2.CAR T cells. The data set is described as follows: Expansion of HER2.CAR T cells with IL-2 under repeated TMZ treatment (cell counts every three days). Type of data set: cell-based. Particulars: 100 μM TMZ, retreated every three days, 100 U/ml IL-2; n=4 donors; p<0.05.
Method: 1×10^6 HER2.CAR T cells were plated on day 1 with 100 U/ml of IL-2 and treated with 100 μM TMZ. Every three days, the T cells were counted, given fresh IL-2, and retreated with TMZ.
To do this, 1×10^6 HER2.CAR T cells were plated with 100 U/ml of IL-2 and treated with 100 μM TMZ (day 1). Every three days, the T cells were counted, given fresh IL-2, and re-treated with TMZ.
For data set [3], the system named is U373.eGFP.FFLuc cells. Description: Coculture of U373.eGFP.FFLuc tumor cells with T cells with or without TMZ, tumor killing by fluorescence microscopy. To be noted: TMZ with non-transduced (NT) T cells. Format: cell-based. The procedure: Tumor killing was evaluated by fluorescence microscopy.
Both TMZ and HER2.CAR T cells have anti-GBM activity on their own; however, it is unknown whether combining the agents provides additional benefit.

Consider `Cn1nnc2c(C(N)=O)ncn2c1=O` [TMZ, 3-methyl-4-oxo-3H,4H-imidazo[4,3-d][1,2,3,5]tetrazine-8-carboxamide], for which the results for the median overall survival in data set [1] (methylated MGMT promoters) and in data set [1] (unmethylated MGMT promoters) were 21.7 months and 12.7 months, respectively. Besides, the overall survival result in data set [1] (phase III trial, TMZ with radiation therapy vs. radiotherapy alone, GBM patients) is “significantly improve the overall survival”. In data set [2], the “effect of TMZ on T-cell expansion” value is recorded as “effectively prevented T-cell expansion”. Besides, the “antitumor activity / tumor killing” value in data set [3] is reported as “limited antitumor activity”.

The values are drawn from US20160024175A1, “CHEMOTHERAPY-RESISTANT IMMUNE CELLS” (priority 2013, published 2016).
